From US20260337229A1 (Seattle Children's Hospital (d/b/a Seattle Children's …, priority 2022, published 2026)
Read-outs that look alike come from different tables or passages of the source. Starred links: 1 amine or outer side, 2 acyl side, 3 side chain; linkers in the order of their positions; H or OH if unused. Positions of bridges follow the written chain, without caps; N, C: chain ends. Non-standard residues stand in square brackets, D forms with d. Residues, ends and D or L forms follow the SMILES beside them. Groups on a side chain read outwards from the residue. *: point of attachment. PEG8 = NCCOCCOCCOCCOCCOCCOCCOCCOCCC(=O)O; Palmitoyl = CCCCCCCCCCCCCCCC(=O)*; hCys = N[C@@H](CCS)C(=O)O; X1 = O=C(CC[*:2])[*:1]

How the values were obtained:
[1] = Blood parameters after 22-day treatment of DIO rats; assay type: in vivo, male Sprague Dawley rats
Excerpt: (§1) Male Sprague Dawley rats were fed 60% HF diet (D12492; Research Diets, Inc; New Brunswick, NJ; 5.21 kcal/g) for 16 weeks prior to the start of the study. Rats were then singly house in BioDAQ cages (Research Diets, Inc.; New Brunswick, NJ) and allowed to acclimate to their new environment for 10 days. Baseline measures of body weight, food intake and water intake were taken for one week to balance the groups and create feeding pairs. Each group (n=6 animals/group) averaged 714.47±81.6 g at baseline (Table 3).
(§2) Effects of ASK2131 were compared to a vehicle-treated group, OXT-treated group, as well as a pair-fed control group. Three days of baseline measures were taken before subcutaneous treatment administration began on day 4 of the study. Assessments were made to body weight, food intake and water intake. ASK2131 was administered at 50 nmol/kg throughout the entire study period. […] OXT-treated animals were started at 50 nmol/kg dose for two days, followed by 150 nmol/kg, then 300 nmol/kg, until ending at 600 nmol/kg for the remainder of the study.
Cardiac puncture was used to collect blood for analysis 2 h post final injection. Commercially available enzyme-linked immunosorbent assays (ELISA) were used for quantitative assessment of leptin (cat. #EZRL-83K; MilliporeSigma, Burlington, MA, USA), insulin (cat. #EZRMI-13K; MilliporeSigma, Burlington, MA, USA), and adiponectin (cat. #EZRAPD-62K MilliporeSigma, Burlington, MA, USA). Serum samples were diluted 1:500 for the adiponectin ELISA using the sample diluent provided with the kit. All ELISAs were completed following the manufacturers recommendations. Levels of glucose, cholesterol (total, HDL, and calculated LDL), triglycerides, ALT, and AST were determined in the serum on a Modular P chemistry analyzer (Roche Diagnostics, Risch-Rotkreuz, Switzerland) by the University of Washington Nutrition and Obesity Research Center's Analytic Core (Seattle, WA, USA).

[2] = target: T1, human V1a receptor (Homo sapiens, UniProt P37288); test: Cytosolic Ca2+ mobilization agonist assay at human V1a receptor; assay type: cell-based; conditions: stably transfected CHO cells; read-out: hV1aR, EC50
T1 construct: expressed in transfected cells; host or cells: CHO
Method: The cells were suspended in DMEM buffer (Invitrogen, Carlsbad, CA) complemented with 0.1% FCSd, then distributed in microplates at a density of 4.5×10^4 cells/well. The fluorescent probe (Fluo4 Direct, Invitrogen, Carlsbad, CA) mixed with probenicid in HBSS buffer (Invitrogen, Carlsbad, CA) complemented with 20 mM HEPES (Invitrogen, Carlsbad, CA) (pH 7.4) was then added into each well and equilibrated with the cells for 60 min at 37° C. then 15 min at 22° C. The assay plates were positioned in a microplate reader (CellLux, PerkinElmer) followed by the addition of the test compound ASK2131, reference agonist or HBSS buffer (basal control), and the measurements of changes in fluorescence intensity which varies proportionally to the free cytosolic Ca^2+ ion concentration. For stimulated control measurements, AVP at 1 μM was added in separate assay wells. The results were expressed as a percent of the control response to 1 μM AVP. The standard reference agonist was AVP, which was tested in each experiment at several concentrations to generate a concentration-response curve from which its EC50 value was calculated.

[3] = Pharmacokinetics, iv, rat; assay type: in vivo
[4] = target: T2, human V2 receptor (Homo sapiens, UniProt P30518); test: cAMP production (HTRF) agonist assay at human V2 receptor; assay type: cell-based; conditions: stably transfected CHO cells, read-out: hV2R, EC50
T2 construct: expressed in transfected cells; host or cells: CHO
Method: In Vitro Functional Assay measuring V2R Evaluation of the agonist activity of ASK2131 at the human V2 receptor expressed in stably transfected CHO cells was conducted by measuring its effects on cAMP production using the HTRF detection method. The cells were suspended in HBSS buffer (Invitrogen, Carsbad, CA) complemented with 20 mM HEPES (pH 7.4), 0.010% BSA and 500 μM IBMX, then distributed in microplates at a density of […] cells/well and incubated for 30 min at room temperature in the absence (control) or presence of the test compound or the reference agonist.
For stimulated control measurement, separate assay wells contained 1 nM AVP. Following incubation, the cells were lysed, and the fluorescence acceptor (D2-labeled cAMP) and fluorescence donor (anti-cAMP antibody labeled with europium cryptate) were added. After 60 min at room temperature, the fluorescence transfer was measured at γ ex=337 nm and γ em=620 and 665 nm using a microplate reader (Envision, Perkin Elmer). The cAMP concentration was determined by dividing the signal measured at 665 nm by that measured at 620 nm (ratio).
The results were expressed as a percent of the control response to 1 nM AVP. The standard reference agonist was AVP, which was tested in each experiment at several concentrations to generate a concentration-response curve from which its EC50 value was calculated.

[5] = target: T3, hOXTR (Homo sapiens, UniProt P30559); test: Ca2+ flux fluorometric imaging plate reader assay at OXTR; assay type: cell-based
T3 construct: expressed in transfected cells; host or cells: CHO (hOTR NFAT bLac)
T3 sequence (P30559 1-389): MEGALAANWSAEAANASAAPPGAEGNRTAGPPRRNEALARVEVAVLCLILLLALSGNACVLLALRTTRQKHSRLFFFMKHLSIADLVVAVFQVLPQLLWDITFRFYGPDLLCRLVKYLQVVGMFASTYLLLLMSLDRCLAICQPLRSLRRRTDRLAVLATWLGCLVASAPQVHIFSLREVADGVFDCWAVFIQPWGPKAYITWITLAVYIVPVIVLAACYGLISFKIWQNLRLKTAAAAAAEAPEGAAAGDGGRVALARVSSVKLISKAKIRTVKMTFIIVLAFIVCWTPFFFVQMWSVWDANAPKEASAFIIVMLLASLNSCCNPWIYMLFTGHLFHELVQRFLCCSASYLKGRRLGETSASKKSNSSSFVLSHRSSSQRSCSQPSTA
Method: In a typical experimental protocol, stably transfected Chinese hamster ovary (CHO) hOTR NFAT bLac cells were plated at a density of 10,000 cells/well in a 384-well plate in growth medium (Dulbecco's modified Eagle's medium+Glutamax (Thermo Fisher Scientific, Waltham, MA), 10% dialyzed fetal bovine serum). The next day calcium-sensitive, fluo-4 dye (Invitrogen, Carlsbad, CA) and probenecid (Invitrogen; 2.5 mM) was dissolved in 20 ml warm dye loading buffer (Hanks' balanced salt solution with calcium and magnesium, 20 mM Hepes, pH 7.4) and added to each well. Plates were incubated for 60-120 minutes in a 37° C. cell incubator to allow cells to uptake the dye. […] After dye-loading, the cell plates were placed on the fluorometric imaging plate reader. A total of […] of test compound was added to the […] of dye on the cells, and intracellular Ca^2+ was monitored for 90 seconds. Intracellular Ca^2+ concentrations were calculated as the maximum increase over basal levels. Responses were normalized to control responses. Data were analyzed by curve fitting.

[6] = 22-day long-term study in DIO rats (body weight, food and water intake); assay type: in vivo, male Sprague Dawley rats; conditions: in words
Excerpt: For studies utilizing a DIO rat model, male Sprague Dawley rats (CD-IGS rats, strain 001; approximately 4 weeks of age; 51-75 g) purchased from Charles River Laboratories (Wilmington, MA, USA). These rats were fed a diet of 60% calories from fat (Formula: D12492; Research Diets, Inc., New Brunswick, NJ, USA; 5.21 kcal/g) for 4.5 to 6 months prior to the start of the study to induce obesity. For studies utilizing lean rats, male Sprague Dawley rats (CD-IGS rats, strain 001; 226-250 g) purchased from Charles River Laboratories (Wilmington, MA, USA). All rats had ad libitum access to food and water and were kept on a 12 h light/12 h dark cycle. Animals were individually housed in a temperature (22±1° C.) and humidity (57±4%) controlled room. All body weight measurements were taken just prior to the start of the dark cycle.
as §1, §2

[7] = serum 2 h post final injection, 22 days sc, mean ± SEM, OXT n=4

T1 sequence (P37288 whole entry): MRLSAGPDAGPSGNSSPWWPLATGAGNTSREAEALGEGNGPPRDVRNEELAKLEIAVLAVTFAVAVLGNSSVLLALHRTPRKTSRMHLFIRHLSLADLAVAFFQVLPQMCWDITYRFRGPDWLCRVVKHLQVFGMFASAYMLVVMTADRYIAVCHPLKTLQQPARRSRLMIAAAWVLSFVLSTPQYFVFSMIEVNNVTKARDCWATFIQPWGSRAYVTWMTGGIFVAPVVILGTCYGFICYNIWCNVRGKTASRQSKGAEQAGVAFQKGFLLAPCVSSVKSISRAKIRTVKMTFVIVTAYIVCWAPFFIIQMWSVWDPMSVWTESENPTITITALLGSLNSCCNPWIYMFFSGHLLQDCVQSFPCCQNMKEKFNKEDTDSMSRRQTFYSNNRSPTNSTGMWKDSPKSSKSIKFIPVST
T2 sequence (P30518 whole entry): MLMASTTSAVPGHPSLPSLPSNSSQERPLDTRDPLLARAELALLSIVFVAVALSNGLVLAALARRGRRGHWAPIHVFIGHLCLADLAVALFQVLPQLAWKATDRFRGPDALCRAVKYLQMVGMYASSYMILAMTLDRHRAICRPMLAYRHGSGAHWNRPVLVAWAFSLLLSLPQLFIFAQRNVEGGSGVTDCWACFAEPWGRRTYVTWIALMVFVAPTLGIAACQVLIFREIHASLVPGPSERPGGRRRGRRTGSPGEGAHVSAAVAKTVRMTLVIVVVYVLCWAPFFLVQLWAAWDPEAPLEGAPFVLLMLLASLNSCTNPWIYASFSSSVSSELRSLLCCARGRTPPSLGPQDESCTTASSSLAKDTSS

EC50 [2]: > 1000 nM
T1/2 [3]: 2.30 h
Tmax [3]: 4.00 h
free Cmax ([3]; 4 hours post-dose): 0.5 nM
half-life ([3]; plasma): 2.3 h
clearance ([3]; plasma, read-out: CLplasma): 1.2 mL/min/kg
Tmax ([3]; plasma, read-out: Tmax): 4 h
Vd ([3]; plasma, read-out: Vd, steady-state volume of distribution): 0.8 L/kg
Cmax at 4 h ([3]; total plasma concentration, 4 hours post-dose): 276 nM
EC50 [4]: 0.36 nM
EC50 [5]: 1.1 nM
Ratio OXTR/V2R/ ([5]; ratio of EC50 values): 3.06
Compound: CCCCCCCCCCCCCCCC(=O)NCCOCCOCCOCCOCCOCCOCCOCCOCCC(=O)NCCCC[C@H](NC(=O)CNC(=O)[C@@H]1CCSCCC(=O)N[C@@H](Cc2ccc(O)cc2)C(=O)N[C@@H]([C@@H](C)CC)C(=O)N[C@@H](CCC(N)=O)C(=O)N[C@@H](CC(N)=O)C(=O)N1)C(=O)NCC(N)=O [ASK2131] (YIQN[hCys]GK([PEG8-Palmitoyl])G-NH2; linker N-5 via X1)
glucose, triglyceride, ALT, and AST levels ([1]; 22 days, in words): No significant differences
ALT [1, 7]: 26 ± 2 U/L
AST [1, 7]: 73 ± 8 U/L
adverse effects caused by the activation of V2R [6]: No adverse effects caused by the activation of V2R were observed
